The values below come from PMC4810081, “Venetoclax (ABT-199) Might Act as a Perpetrator in Pharmacokinetic Drug–Drug Interactions” (Pharmaceutics, 2016).

Broadly, the IC50 is the point on the concentration scale where inhibition reaches its midpoint.

One data set relates to CYP3A4. In words: Induction assay, CYP3A4 mRNA by real-time RT-PCR in LS180 cells. The note with it: four days, 0.01–10 µM. Format: in vitro ADME, human. As to the method: LS180 cells. The human colon adenocarcinoma cell line LS180 (available at ATCC, Manassas, VA, USA) is one of the standard models for investigating pregnane X receptor (PXR) and aryl hydrocarbon receptor (AhR) mediated induction and was thus used for induction experiments. Cells were cultured under standard cell culture conditions with DMEM supplemented with 10% FCS, 2 mM of glutamine, 100 U/mL of penicillin, 100 µg/mL of streptomycin sulfate, and 0.1 mM of nonessential amino acids.
For the induction experiments, LS180 cells were seeded in 75 cm^2 culturing flasks and incubated for three days. […]
RNA was isolated using the GenElute™ Mammalian Total RNA Miniprep Kit, and cDNA was synthesized with the RevertAid™ H Minus First Strand cDNA Synthesis Kit according to the manufacturer's instructions. mRNA expression was quantified by real-time RT-PCR with the LightCycler® 480 (Roche Applied Science, Mannheim, Germany) as described previously. […] Data were evaluated via calibrator-normalized relative quantification with efficiency correction using the LightCycler® 480 software version 1.5 (Roche Applied Science, Mannheim, Germany). […] The following target genes were quantified: CYP1A1, CYP1A2, CYP3A4, ABCB1, ABCC2, ABCG2, SLCO1B1 (coding for OATP1B1), UDP-glucuronosyltransferase 1A3 (UGT1A3), and UGT1A9.
In general terms: Real-time PCR tracks product formation cycle by cycle.

Data set [1] deals with cell lines used for P-gp, BCRP, and OATP inhibition assays. In words: Cytotoxicity assay (Cytotoxicity Detection Kit). Format: cell-based. The note with it: up to 100 µM, all cell lines used. As to the method: Prior to P-gp, BCRP, and OATP inhibition assays, venetoclax was tested in the respective cell lines for cytotoxic effects with the Cytotoxicity Detection Kit (Roche Applied Science, Mannheim, Germany). Venetoclax was not cytotoxic up to 100 µM in all cell lines used.

A further data set addresses T1, OATP1B1 (Homo sapiens, UniProt Q9Y6L6).
T1 construct: expressed in transfected cells; host or cells: HEK293 (HEK-OATP1B1; gift of D. Keppler)
Description: OATP1B1 inhibition, 8-FcA uptake in HEK-OATP1B1 cells. Format: in vitro ADME. As to the method: HEK293 cells. For assessing inhibition of OATP1B1 and OATP1B3, the human embryonic kidney cell line HEK293 stably transfected with OATP1B1 (HEK-OATP1B1), OATP1B3 (HEK-OATP1B3), or the empty control vector (HEK293-VCG418) were used. Cells were cultured under standard cell culture conditions with DMEM supplemented with 10% FCS, 2 mM of glutamine, 100 U/mL of penicillin, 100 µg/mL of streptomycin sulfate, and 800 µg/mL of G418 to maintain over-expression. Cells were kindly provided by D. Keppler (German Cancer Research Centre, Heidelberg, Germany).
Inhibition of OATP1B1 and OATP1B3 was analyzed in HEK-OATP1B1 and HEK-OATP1B3 cells by quantifying the uptake of the fluorescent substrate 8-FcA by flow cytometry as described previously. HEK293-VCG418 cells were used as a control. Inhibition of OATPs leads to a reduced uptake of 8-FcA into the cells. Each experiment was performed at least in triplicate, and venetoclax was tested from 0.05 up to 100 µM.

Data set [2] is described as follows: Growth inhibition assay in MDCKII-MRP2 cells. Format: cell-based. The note with it: dog, MDCKII-MRP2 cells (MRP2 over-expressing). As to the method:
MDCKII cells. […] Moreover, MDCKII-BCRP cells were used to assess BCRP inhibition by venetoclax. MDCKII over-expressing cell lines were kindly provided by A. H. Schinkel and P. Borst (Amsterdam, The Netherlands). The parental cell line MDCKII (available at ATCC, Manassas, VA, USA) was used as a control. The cells were cultured in Dulbecco’s Modified Eagle’s Medium (DMEM) containing 10% FCS, 2 mM of glutamine, 100 U/mL of penicillin, and 100 µg/mL of streptomycin sulfate. Growth inhibition assays in LS180 cells were conducted to determine suitable maximum concentrations for the induction assay without profound antiproliferative effects. Proliferation was quantified by crystal violet staining of the surviving cells as described previously. […] Growth inhibition assays in MDCKII, and their MRP2 or BCRP over-expressing counterparts ([…], MDCKII-BCRP) and in LLC-PK1 and the corresponding P-gp over-expressing cell line L-MDR1 were conducted to evaluate whether venetoclax sustains its efficacy in MDR cell lines.

In another data set the test system is LLC-PK1. Description: Growth inhibition assay in LLC-PK1 cells. The note with it: Sus scrofa. Format: cell-based, porcine. As to the method:
LLC-PK1 and L-MDR1 cells. L-MDR1 cells, a porcine kidney epithelial cell line over-expressing the human ABCB1 gene and the corresponding parental control cell line LLC-PK1 (available from ATCC, Manassas, VA, USA) were used to assess the sensitivity of cells with and without P-gp over-expression. L-MDR1 cells were kindly provided by A. H. Schinkel (The Netherlands Cancer Institute, Division of Experimental Therapy, Amsterdam, The Netherlands). The cells were cultured under standard cell culture conditions with medium M199 supplemented with 10% FCS, 2 mM of glutamine, 100 U/mL of penicillin, and 100 µg/mL of streptomycin sulfate. To maintain P-gp/ABCB1 expression the culture medium for L-MDR1 was supplemented with 0.64 µM of vincristine. One day before seeding the cells for the growth inhibition assay, both cell lines were fed with a vincristine-free culture medium.
Growth inhibition assays in LS180 cells were conducted to determine suitable maximum concentrations for the induction assay without profound antiproliferative effects. Proliferation was quantified by crystal violet staining of the surviving cells as described previously. Each experiment was performed at least in triplicate with n = 8 wells for each concentration (0.1–100 µM). […]

T1 sequence (Q9Y6L6 whole entry): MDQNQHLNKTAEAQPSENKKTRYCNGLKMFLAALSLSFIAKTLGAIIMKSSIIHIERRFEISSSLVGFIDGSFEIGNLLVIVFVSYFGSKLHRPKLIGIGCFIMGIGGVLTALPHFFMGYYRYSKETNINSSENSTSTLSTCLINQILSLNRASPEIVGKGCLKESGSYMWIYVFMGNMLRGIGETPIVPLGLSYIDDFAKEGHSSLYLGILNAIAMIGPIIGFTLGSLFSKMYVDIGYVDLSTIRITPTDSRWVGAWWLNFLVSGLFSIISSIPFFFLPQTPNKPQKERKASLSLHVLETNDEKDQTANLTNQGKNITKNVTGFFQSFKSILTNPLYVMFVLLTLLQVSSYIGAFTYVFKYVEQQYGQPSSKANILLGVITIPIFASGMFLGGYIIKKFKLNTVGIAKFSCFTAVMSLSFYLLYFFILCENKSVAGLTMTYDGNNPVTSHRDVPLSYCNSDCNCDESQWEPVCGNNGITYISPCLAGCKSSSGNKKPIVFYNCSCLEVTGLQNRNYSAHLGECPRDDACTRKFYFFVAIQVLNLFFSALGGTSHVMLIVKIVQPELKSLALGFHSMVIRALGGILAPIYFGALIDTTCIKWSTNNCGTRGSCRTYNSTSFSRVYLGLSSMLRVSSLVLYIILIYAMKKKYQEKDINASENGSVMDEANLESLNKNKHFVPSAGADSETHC

In the case of `CC1(C)CCC(CN2CCN(c3ccc(C(=O)NS(=O)(=O)c4ccc(NCC5CCOCC5)c([N+](=O)[O-])c4)c(Oc4cnc5[nH]ccc5c4)c3)CC2)=C(c2ccc(Cl)cc2)C1` [Venetoclax], the “mRNA expression of CYP3A4” value in the data set with CYP3A4 is listed as “unchanged”. In data set [1], the cytotoxic effects result is on record as “not cytotoxic”. For the same molecule, the IC50 worked out at 47.8 ± 10.1 µM at OATP1B1; 17.2 ± 1.8 µM in data set [2]; 24.9 ± 1 µM in the data set with LLC-PK1 (LLC-PK1, LLC-PK1 + LY335979 (1 µM)); 21 ± 0.7 µM in the data set on LLC-PK1 (LLC-PK1, LLC-PK1 parental cells).
